Experiments:
RAW264.7 macrophages = assay: Opsonized binding and phagocytosis of FITC-zymosan A bioparticles; type: cell-based, mouse; details: 37° C.
Description: Monocytes were incubated with RR1 at 37° C. for 1 hour followed by FITC-labeled zymosan A bioparticles for another 1 hour at 37° C. The cells were washed and intracellular fluorescence measured in a Coulter Elite Flow cytometer.
Opsonized binding and Phagocytosis. To determine the effect of RR1 and laminarin on opsonized binding and phagocytosis of zymosan A particles, RAW 264.7 cells were treated with RR1 or laminarin (0 and 500 μg/ml) in DMEM at 37° C. for 1 hour. This will ensure the release of opsonins and facilitate opsonic binding. The cells were washed with PBS twice and incubated with zymosan A-FITC bioparticles at a ratio of 25 particles/cell at 37° C. for 1 hour. The cells were suspended in PBS after removing the unbound zymosan particles by extensive washing with the medium, and the intracellular fluorescence analyzed in a Coulter Elite flow cytometer. The fluorescence intensity was expressed as percentage of control.

RAW 264.7 cells = assay: RR1-induced TNF-α synthesis with and without CAPE, ELISA; type: cell-based, mouse; details: CAPE 10 μg/ml for 1 hour prior to RR1, all RR1 concentrations
Description: The cells were pre-incubated with 10 μg/ml CAPE for 1 hour in 0.5% FBS containing DMEM medium and replaced with medium containing RR1 at varying concentrations for 4 hour at 37° C. The medium was analyzed for secreted TNF-α using ELISA protocol.
RR1-induced TNF-α synthesis. RAW 264.7 cells (0.5×10^6/ml) were plated on 6-well plates with DMEM medium containing 0.5% FBS (starvation). Once the cells were attached, medium was replaced, RR1 was added at 0, 100, 500 and 1000 μg/ml doses and incubated at 37° C. for 24 hours. The medium was analyzed for the secreted TNF-α using the ELISA kit (BD BIOSCIENCES kit, San Jose, Calif.) based on the manufacturer's protocol.
To determine the effect of NF-κB inhibitor CAPE on TNF-α synthesis, RAW 264.7 cells were treated with 10 μg/ml of CAPE for 1 hour at 37° C. followed by treatment with RR1 (0-1000 μg/ml) overnight in the incubator. The secreted TNF-α in the medium was analyzed using ELISA (BD BIOSCIENCES, San Jose, Calif.).

Row | inhibitory effect on opsonized binding and phagocytosis of zymosan A bioparticles (RAW264.7 macrophages; 500 μg/ml, 1 hour) | inhibition of zymosan bioparticle internalization (RAW264.7 macrophages; opsonized) | Compound | effect on RR1-induced TNF-α synthesis (RAW 264.7 cells)
1 | absolute inhibitory effect | about 90% | Laminarin [reference compound] | 
2 |  |  | O=C(/C=C/c1ccc(O)c(O)c1)OCCc1ccccc1 [CAPE, caffeic acid phenethyl ester, reference compound] | completely inhibited

Reference: patent publication US7425548B2, “Materials and methods for immune system stimulation” (Variety Chidren's Hospital, priority 2004, dated 2008)
